Experiments:
diabetic mouse = test: Blood glucose level after administration to diabetic mice; assay type: in vivo, Balb-c strain male mice; conditions: subcutaneous injection, 1 IU/kg
Procedure: Six-week old Balb-c strain male mice were used. Streptozotocin was dissolved in a 0.1 mM sodium chloride buffer at a concentration of 30 mg/mL, followed by subcutaneously injecting into the […] at a dosage of 65 mg/kg so as to induce diabetes. The male mice showing a blood glucose level of 470±40 mg/dL over two consecutive days were selected and the experiment was performed. The diabetic mice were starved for 12 hours before the experiment was started.
After the capsules showing the most preferable result were selected from Experimental Example 7 and Comparative Experimental Example 5, respectively, each capsule was orally administered to the diabetic mouse established in Preparative Example 4 and a blood glucose level was measured. […]
AAC (area above the blood glucose level-time curve) is to be numerically expressed the area above the blood glucose level-time curve by using a linear trapezoidal rule. […] F is relative bioavailability of a drug, which is calculated by multiplying the AAC value in case of the oral administration of insulin by the amount of insulin subcutaneously injected, dividing the resulting value by the AAC value in case of the subcutaneous injection of insulin, and dividing the resulting value by the amount of insulin orally administered. […]

diabetic rats = test: Blood glucose lowering effect by dosage for 4 hours in diabetic rats; assay type: in vivo, Male Sprague-Dawley (SD) rats; conditions: diabetic SD rats, subcutaneous injection (PC, positive control)

## Insulin
Diabetic mouse
  blood glucose level: rapidly decreased
Diabetic rats
  blood glucose level: most rapidly decreased

From patent US8974819B2, “Sustained-release chitosan capsules comprising chitosan and phytic acid” (priority 2007, dated 2015)
